The record followed here is US9062051B2, “Compounds and pharmaceutical compositions thereof for the treatment of proliferative disorders” (GALAPAGOS NV, priority 2014, dated 2015).

Structures are written as SMILES. pIC50: −log10 of the molar value.

The pIC50 is the IC50 on a negative log10 scale, so that one unit is a factor of ten.

One test deals with T1, Recombinant EphA7 (Homo sapiens, UniProt Q15375).
T1 construct: purchased Carna 08-126
As to the kind of experiment: EphA7 assay (33P incorporation into poly GT, filter plate). The test is classed as biochemical. To be noted: EphA7 potency; 0.15 μM ATP; read-out: IC50. The protocol: The principle of the assay consists of the measurement of incorporated ^33P into the substrate poly GT when phosphorylated by the enzyme EphA7 using [^33P]-γ-ATP and ATP. Unincorporated ^33P is removed by loading the samples on a filter plate (using a harvester, Perkin Elmer) and 6 subsequent washing steps. ^33P incorporated in polyGT is measured on a Topcount after addition of microscint to the filter plates (Perkin Elmer).
Recombinant EphA7 (Carna Cat#08-126, 2 ng per well) was incubated with 0.1 mg/mL Poly(Glu,Tyr)sodium salt (4:1), MW 20 000-50 000 (Sigma catalog number P0275) in kinase reaction buffer (10 mM MOPS pH 7.2, 5 mM DTT, 0.01% Triton-X100, 5 mM MnCl2, 0.5 mM Na3VO4, 5 mM beta-glycerolphosphate), 0.15 μM non-radioactive ATP, 0.125 μCi/25 μl ^33P-gamma-ATP (Perkin Elmer, catalog number NEG602K) final concentrations with or without 5 μL containing test compound or vehicle (DMSO, 1% final concentration), in a total volume of 25 μL, in a polypropylene 96-well plate (Greiner, V-bottom). After 90 min at 30° C., reactions were stopped by adding of 25 μL/well of 150 mM phosphoric acid. All of the terminated kinase reaction was transferred to prewashed (75 mM phosphoric acid) 96 well filter plates (Perkin Elmer catalog number 6005177) using a cell harvester (Perkin Elmer). Plates were washed 6 times with 300 μL per well of a 75 mM phosphoric acid solution and the bottom of the plates was sealed. 40 μL/well of Microscint-20 was added, the top of the plates was sealed and readout was performed using the Topcount (Perkin Elmer). The ability of a test compound to inhibit the kinase activity was determined using counts per minutes (cpm) measured by the Topcount as:
Cpm (cpd): cpm determined for sample with test compound present
Cpm (control): cpm determined for sample with positive control inhibitor (10 μM staurosporine)
Cpm (vehicle): cpm determined in the presence of vehicle (1% DMSO)
Dose dilution series were prepared for the compounds enabling the testing of dose-response effects in the EphA7 assay and the calculation of the IC50 for each compound. Each compound was routinely tested at concentration of 20 μM followed by a 1/5 serial dilution, 10 points in a final concentration of 1% DMSO. When potency of compound series increased, more dilutions may be prepared and/or the top concentration may be lowered (e.g. 5 μM, 1 μM).

Another test addresses T2, EphA2 (UniProt Ref: P29317) (Homo sapiens, UniProt P29317).
T2 construct: purchased Reaction Biology
As to the kind of experiment: EphA2 assay (Reaction Biology HotSpot radioactive kinase assay). The note with it: ATP 10 μM; read-out: EphA2 potency IC50. The test is classed as biochemical. The protocol:
Inhibition of EphA2 (UniProt Ref: P29317) by a test compound is determined by a commercially available Reaction Biology proprietary nanoliter radioactive HotSpot^SM assay (Reaction Biology, One great valley parkway, Suite 2, Malvern Pa., 19355, USA). The principle of the assay consists of the measurement of incorporated ^33P into poly[Glu:Tyr] (4:1) (0.2 mg/mL) when the substrate is phosphorylated by the enzyme using [^33P]-γ-ATP and ATP (10 μM).
To determine the IC50, a serial dilution of compound is tested starting from 10, or 3 μM (highest dilution) with a 1/3 dilution.

T2 sequence (P29317 24-976): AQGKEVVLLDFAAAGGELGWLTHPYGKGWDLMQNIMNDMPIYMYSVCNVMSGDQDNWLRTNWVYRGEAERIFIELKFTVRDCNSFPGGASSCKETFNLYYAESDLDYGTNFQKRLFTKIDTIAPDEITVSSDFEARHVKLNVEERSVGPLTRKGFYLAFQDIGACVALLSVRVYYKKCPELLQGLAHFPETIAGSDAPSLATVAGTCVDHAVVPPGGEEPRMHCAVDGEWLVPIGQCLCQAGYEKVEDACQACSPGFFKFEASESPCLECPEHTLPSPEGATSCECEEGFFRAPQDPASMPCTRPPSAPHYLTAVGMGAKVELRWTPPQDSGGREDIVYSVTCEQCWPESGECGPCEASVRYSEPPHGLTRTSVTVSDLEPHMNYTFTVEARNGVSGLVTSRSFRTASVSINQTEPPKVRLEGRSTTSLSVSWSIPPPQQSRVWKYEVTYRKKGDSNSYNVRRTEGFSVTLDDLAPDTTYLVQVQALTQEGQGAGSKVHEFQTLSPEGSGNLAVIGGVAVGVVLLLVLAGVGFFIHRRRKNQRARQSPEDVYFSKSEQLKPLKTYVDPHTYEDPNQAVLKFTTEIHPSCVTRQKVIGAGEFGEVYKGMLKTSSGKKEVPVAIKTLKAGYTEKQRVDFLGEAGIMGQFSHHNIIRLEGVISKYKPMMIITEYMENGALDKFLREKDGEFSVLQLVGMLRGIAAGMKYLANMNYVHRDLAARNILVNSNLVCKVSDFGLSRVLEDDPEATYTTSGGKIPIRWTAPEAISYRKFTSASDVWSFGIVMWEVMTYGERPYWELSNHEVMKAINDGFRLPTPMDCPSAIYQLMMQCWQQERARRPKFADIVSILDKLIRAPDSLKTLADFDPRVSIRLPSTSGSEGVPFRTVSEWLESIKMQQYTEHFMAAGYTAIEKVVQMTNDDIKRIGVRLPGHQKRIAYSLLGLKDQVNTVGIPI
T1 sequence (Q15375 579-998 limits assumed): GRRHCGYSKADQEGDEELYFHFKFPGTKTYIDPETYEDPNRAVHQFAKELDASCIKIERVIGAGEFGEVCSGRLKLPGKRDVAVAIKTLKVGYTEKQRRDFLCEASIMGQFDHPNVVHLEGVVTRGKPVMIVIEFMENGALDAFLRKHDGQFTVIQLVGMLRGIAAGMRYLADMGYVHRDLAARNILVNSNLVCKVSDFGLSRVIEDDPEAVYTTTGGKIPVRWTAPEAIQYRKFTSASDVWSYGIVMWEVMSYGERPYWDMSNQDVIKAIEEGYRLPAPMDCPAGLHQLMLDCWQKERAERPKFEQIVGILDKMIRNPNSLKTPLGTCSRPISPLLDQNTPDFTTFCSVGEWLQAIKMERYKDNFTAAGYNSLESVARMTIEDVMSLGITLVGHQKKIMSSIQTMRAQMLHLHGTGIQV

With `CCc1n[nH]c2nc(-c3cc(NC(=O)c4cc(OCCN5CCOCC5)cc(C5CC5)c4)cnc3C)ccc12` [Compound 43, 3-Cyclopropyl-N-[5-(3-ethyl-1H-pyrazolo[3,4-b]pyridin-6-yl)-6-methyl-pyridin-3-yl]-5-(2-morpholin-4-yl-ethoxy)-benzamide], the pIC50 is 6.60 to 11.00 on Recombinant EphA7 and 7.60 to 11.00 at EphA2. In the case of `CCc1n[nH]c2nc(-c3cc(NC(=O)c4cc(OC)cc(OCCN5CCOCC5)c4)ccc3C)ccc12` [Compound 41, N-[3-(3-Ethyl-1H-pyrazolo[3,4-b]pyridin-6-yl)-4-methyl-phenyl]-3-methoxy-5-(2-morpholin-4-yl-ethoxy)-benzamide], the pIC50 at EphA2 is 7.60 to 11.00. Consider `CCc1n[nH]c2nc(-c3cc(NC(=O)c4cc(OC)cc(OC)c4)ccc3Cl)ccc12` [Compound 22, N-[4-Chloro-3-(3-ethyl-1H-pyrazolo[3,4-b]pyridin-6-yl)-phenyl]-3,5-dimethoxy-benzamide], for which the pIC50 at EphA2 was 7.30 to 7.60.

For the compound `CCc1n[nH]c2nc(-c3cc(NC(=O)c4cc(N(C)C)cc(C(F)(F)F)c4)ccc3C)ccc12` [Compound 26, 3-Dimethylamino-N-[3-(3-ethyl-1H-pyrazolo[3,4-b]pyridin-6-yl)-4-methyl-phenyl]-5-trifluoromethyl-benzamide], the pIC50 on EphA2 was 7.00 to 7.30. For `Cc1cc(C)cc(C(=O)Nc2cnc(C)c(-c3ccc4c(C)n[nH]c4n3)c2)c1` [Compound 52, 3,5-Dimethyl-N-[6-methyl-5-(3-methyl-1H-pyrazolo[3,4-b]pyridin-6-yl)-pyridin-3-yl]-benzamide], on EphA2, the pIC50 was 7.60 to 11.00.

`CCc1n[nH]c2nc(-c3cc(NC(=O)c4cc(OC)cc(C(F)(F)F)c4)ccc3C)ccc12` [Compound 33, N-[3-(3-Ethyl-1H-pyrazolo[3,4-b]pyridin-6-yl)-4-methyl-phenyl]-3-methoxy-5-trifluoromethyl-benzamide]: the pIC50 at EphA2 is 7.60 to 11.00. Same read-out and setting: the value for `Cc1ccc(NC(=O)c2cccc(C(F)(F)F)c2)cc1-c1ccc2c(CO)n[nH]c2n1` [Compound 1, N-(3-(3-(hydroxymethyl)-1H-pyrazolo[3,4-b]pyridin-6-yl)-4-methylphenyl)-3-(trifluoromethyl)benzamide] was 7.60 to 11.00. For the compound `CCc1n[nH]c2nc(-c3cc(NC(=O)c4cc(C)cc(OCCO)c4)ccc3C)ccc12` [Compound 23, N-[3-(3-Ethyl-1H-pyrazolo[3,4-b]pyridin-6-yl)-4-methyl-phenyl]-3-(2-hydroxy-ethoxy)-5-methyl-benzamide], on EphA2, the pIC50 is 7.60 to 11.00.

With `CCc1ccc(NC(=O)c2cc(OC)cc(OC)c2)cc1-c1ccc2c(CC)n[nH]c2n1` [Compound 32, N-[4-Ethyl-3-(3-ethyl-1H-pyrazolo[3,4-b]pyridin-6-yl)-phenyl]-3,5-dimethoxy-benzamide], the negative logarithm of the IC50 (pIC50) at EphA2 is 7.00 to 7.30. In the case of `CCc1n[nH]c2nc(-c3cc(NC(=O)c4cc(C)cc(OC)c4)ccc3C)ccc12` [Compound 19, N-[3-(3-Ethyl-1H-pyrazolo[3,4-b]pyridin-6-yl)-4-methyl-phenyl]-3-methoxy-5-methyl-benzamide], the negative logarithm of the IC50 (pIC50) on EphA2 was 7.60 to 11.00.

With `Cc1ncc(NC(=O)c2cccc(C(F)(F)F)c2)cc1-c1ccc2c(C)n[nH]c2n1` [Compound 53, N-[6-Methyl-5-(3-methyl-1H-pyrazolo[3,4-b]pyridin-6-yl)-pyridin-3-yl]-3-trifluoromethyl-benzamide], on EphA2, the pIC50 was 7.60 to 11.00. Same read-out and setting: the value for `CCc1n[nH]c2nc(-c3cc(NC(=O)c4cc(OC)cc(OCCN)c4)ccc3C)ccc12` [Compound 39, 3-(2-amino-ethoxy)-N-[3-(3-ethyl-1H-pyrazolo[3,4-b]pyrin-6-yl)-4-methylphenyl]-5-methoxybenzamide] was 7.60 to 11.00. Same read-out and setting: the value for `CCc1n[nH]c2nc(-c3cc(NC(=O)c4cc(OC)cc(C5CC5)c4)ccc3C)ccc12` [Compound 51, 3-Cyclopropyl-N-[3-(3-ethyl-1H-pyrazolo[3,4-b]pyridin-6-yl)-4-methyl-phenyl]-5-methoxy-benzamide] was 7.60 to 11.00.

For the compound `CCc1n[nH]c2nc(-c3cc(NC(=O)c4cc(C)cc(OCCN(C)C)c4)ccc3C)ccc12` [Compound 25, 3-(2-Dimethylamino-ethoxy)-N-[3-(3-ethyl-1H-pyrazolo[3,4-b]pyridin-6-yl)-4-methyl-phenyl]-5-methyl-benzamide], at EphA2, the pIC50 was 7.60 to 11.00. Same read-out and setting: in the case of `COc1cc(OC)cc(C(=O)Nc2ccc(C)c(-c3ccc4c([C@@H](C)O)n[nH]c4n3)c2)c1` [Compound 48, N-{3-[3-((R)-1-Hydroxy-ethyl)-1H-pyrazolo[3,4-b]pyridin-6-yl]-4-methyl-phenyl}-3,5-dimethoxy-benzamide] it was 7.30 to 7.60; in that of `CCc1n[nH]c2nc(-c3cc(NC(=O)c4cc(OC)cc(OCCN)c4)cnc3C)ccc12` [Compound 44, 3-(2-Amino-ethoxy)-N-[5-(3-ethyl-1H-pyrazolo[3,4-b]pyridin-6-yl)-6-methyl-pyridin-3-yl]-5-methoxy-benzamide], 7.00 to 7.30; in that of `Cc1cc(C)cc(C(=O)Nc2ccc(C)c(-c3ccc4c(C(C)O)n[nH]c4n3)c2)c1` (stereo not drawn) [Compound 54, N-{3-[3-(1-Hydroxy-ethyl)-1H-pyrazolo[3,4-b]pyridin-6-yl]-4-methyl-phenyl}-3,5-dimethyl-benzamide], 7.60 to 11.00.
